The text below walks through data of ChEMBL document CHEMBL1201862, “PubChem BioAssay data set” (2004).

Test systems include ACHN; CCRF-CEM; COLO 205; EKVX; HCC 2998; HCT-15; HL-60; HOP-62; HT-29; KM12; MOLT-4; NCI-H23; NCI-H460; OVCAR-4; OVCAR-5; SF-268; SF-295; U-251; A498; CAKI-1.
Holding throughout (experiment): NCI anticancer screen, dose series, 48 h

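Method: 48-hour compound exposure of cells in 96-well plates, five concentrations, linear interpolation of endpoints. At the GI50, growth is halved.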 Activity calls are given as the source filed them. No stated cut-off is given here; in the data, active = GI50 up to about 1.1 µM and inactive = higher.

Take `Cc1cn(C2CC(O)C(CO)C2C)c(=O)[nH]c1=O` (centres undefined): the GI50 in the assay on ACHN was > 100 µM (inactive); in the assay on CCRF-CEM, > 100 µM (inactive); in the assay with COLO 205, > 100 µM (inactive); in the assay with EKVX it was > 100 µM (inactive); in the assay on HCC 2998 it was > 100 µM (inactive); in the assay with HCT-15, > 100 µM. The GI50 with HL-60, in the assay with HOP-62, with HT-29, in the assay on KM12, in the assay on MOLT-4 and with NCI-H23 was > 100 µM (inactive) each time. In addition, the GI50 in the assay on NCI-H460, in the assay on OVCAR-4, in the assay on OVCAR-5, in the assay on SF-268, in the assay with SF-295 and with U-251 was > 100 µM (inactive) in each case.

As to `O[C@@]12Cc3c([nH]c4ccccc34)[C@@H]3Oc4cccc5c4[C@@]31CCN(CC1CC1)[C@@H]2C5`, the GI50 with A498 is 25.2 µM (inactive); in the assay on ACHN it was 20.4 µM (inactive); with CAKI-1, 19.2 µM (inactive); in the assay on CCRF-CEM it was 11.3 µM (inactive); with COLO 205, 31.4 µM (inactive); in the assay with EKVX, 24.5 µM (inactive). Moreover, the GI50 in the assay with HCC 2998 was 17.7 µM (inactive); in the assay with HCT-15, 18.1 µM; in the assay with HOP-62, 31.8 µM (inactive); with HT-29, 15.9 µM (inactive); in the assay with KM12 it was 39.7 µM (inactive); with MOLT-4 it was 19.6 µM (inactive). The GI50 is 30.7 µM (inactive) in the assay on NCI-H23; 46.1 µM (inactive) in the assay with NCI-H460; 22.5 µM (inactive) with OVCAR-4; 29 µM (inactive) in the assay on OVCAR-5; 19.5 µM (inactive) in the assay with SF-268; 39.7 µM (inactive) in the assay with U-251.

With `c1ccc(CCn2cncn2)cc1`, the GI50 with ACHN is > 100 µM (inactive); in the assay with CCRF-CEM, > 100 µM (inactive); in the assay on COLO 205 it was > 100 µM (inactive); with EKVX it was > 100 µM (inactive); in the assay with HCC 2998 it was > 100 µM (inactive); in the assay on HCT-15, > 100 µM. Also, the GI50 in the assay with HL-60, in the assay with HOP-62, in the assay on HT-29, in the assay with KM12, in the assay with MOLT-4 and in the assay with NCI-H23 was > 100 µM (inactive) in each case. The GI50 in the assay on NCI-H460, in the assay with OVCAR-4, in the assay with OVCAR-5, with SF-268, with SF-295 and in the assay with U-251 was > 100 µM (inactive) in each case.

In the case of `CSc1ncc2c(n1)sc1c(=O)n(-c3ccccc3)cnc12`, the GI50 with A498, with ACHN, in the assay with CAKI-1, in the assay on CCRF-CEM, in the assay with COLO 205 and in the assay with HCC 2998 was > 100 µM (inactive) each time. The GI50 with HCT-15 was > 100 µM; in the assay with HOP-62, > 100 µM (inactive); with HT-29, > 100 µM (inactive); with KM12 it was > 100 µM (inactive); with MOLT-4, > 100 µM (inactive); in the assay with NCI-H23 it was > 100 µM (inactive). For the same compound, the GI50 with NCI-H460, with OVCAR-4, in the assay on OVCAR-5, with SF-268, with SF-295 and in the assay with U-251 was > 100 µM (inactive) in each case.

For the compound `CCSc1nc(N/N=C/c2cccs2)c2cnn(CO)c2n1`, the GI50 in the assay with A498 is 2.18 µM (inactive); with ACHN, 6.07 µM (inactive); in the assay on CAKI-1 it was 2.66 µM (inactive); in the assay with COLO 205 it was 4.73 µM (inactive); in the assay with EKVX, 9.08 µM (inactive); in the assay on HCT-15, 4.88 µM. Moreover, the GI50 is 5.15 µM (inactive) with HL-60; 4.25 µM (inactive) with HOP-62; 3.85 µM (inactive) in the assay on HT-29; 0.408 µM (active) in the assay on KM12; 7.05 µM (inactive) in the assay with NCI-H23; 5.11 µM (inactive) in the assay on NCI-H460. In addition, the GI50 in the assay on OVCAR-4 is 23.6 µM (inactive); with OVCAR-5, 13.4 µM (inactive); in the assay with SF-268 it was 6.22 µM (inactive); with SF-295 it was 8.13 µM (inactive); in the assay on U-251, 6.85 µM (inactive).

For the compound `COc1cc2c(cc1OC)-c1cc3ccccc3c[n+]1CC2`, the GI50 with ACHN was > 100 µM (inactive); in the assay with CAKI-1 it was > 100 µM (inactive); in the assay on CCRF-CEM it was > 100 µM (inactive); with COLO 205, 37.6 µM (inactive); in the assay with EKVX it was > 100 µM (inactive); with HCC 2998 it was > 100 µM (inactive). Further, the GI50 in the assay on HOP-62 is > 100 µM (inactive); in the assay on HT-29, > 100 µM (inactive); with KM12, 65.3 µM (inactive); in the assay on MOLT-4, > 100 µM (inactive); with NCI-H23, > 100 µM (inactive); with NCI-H460, > 100 µM (inactive). For the same compound, the GI50 was > 100 µM (inactive) with OVCAR-4; > 100 µM (inactive) in the assay with OVCAR-5; 27.5 µM (inactive) in the assay with SF-268; 74.8 µM (inactive) with SF-295; 33.6 µM (inactive) with U-251.

On to `CCCCCCCCCCCCCCCCCc1cc(Cl)nc(Cl)n1`, for which the GI50 was > 100 µM (inactive) with ACHN; > 100 µM (inactive) with CCRF-CEM; > 100 µM (inactive) in the assay with EKVX; > 100 µM (inactive) in the assay on HCC 2998; > 100 µM in the assay with HCT-15; 50.8 µM (inactive) in the assay with HL-60. Further, the GI50 with HOP-62, in the assay with HT-29, with KM12, in the assay on MOLT-4, in the assay on NCI-H23 and in the assay with NCI-H460 was > 100 µM (inactive) each time. Also, the GI50 in the assay on OVCAR-4, with OVCAR-5, in the assay on SF-268, in the assay on SF-295 and in the assay with U-251 was > 100 µM (inactive) in each case.

As for `CC1(C)OC2OC(COC(=O)c3ccc(C#N)cc3)C3OC(C)(C)OC3C2O1` (centres undefined), the GI50 in the assay with A498 was > 75 µM (inactive); in the assay on ACHN, > 75 µM (inactive); in the assay on CAKI-1 it was > 75 µM (inactive); in the assay on CCRF-CEM it was 50.7 µM (inactive); in the assay with COLO 205, > 75 µM (inactive); with EKVX, > 75 µM (inactive). Also, the GI50 in the assay on HCC 2998 is > 75 µM (inactive); in the assay with HCT-15, > 75 µM; in the assay with HOP-62 it was > 75 µM (inactive); in the assay with HT-29, > 75 µM (inactive); in the assay with KM12, > 75 µM (inactive); in the assay with MOLT-4, > 75 µM (inactive). Besides, the GI50 in the assay with NCI-H23, in the assay with OVCAR-4, in the assay with OVCAR-5, in the assay on SF-268, with SF-295 and with U-251 was > 75 µM (inactive) throughout.

For the compound `Nc1ccc(Sc2nnc(N)s2)cc1`, the GI50 with ACHN was > 100 µM (inactive); in the assay with CCRF-CEM, > 100 µM (inactive); in the assay with COLO 205, > 100 µM (inactive); with EKVX, > 100 µM (inactive); in the assay on HCC 2998, > 100 µM (inactive); with HCT-15, > 100 µM. Further, the GI50 with HL-60, in the assay with HOP-62, in the assay on KM12, with MOLT-4, in the assay on NCI-H460 and in the assay with OVCAR-4 was > 100 µM (inactive) throughout. Further, the GI50 in the assay with OVCAR-5, in the assay with SF-268, in the assay on SF-295 and in the assay on U-251 was > 100 µM (inactive) each time.

Turning to `C/C(=N\NS(=O)(=O)c1ccccc1)c1ccccc1`, the GI50 is > 100 µM (inactive) in the assay on CAKI-1; > 100 µM (inactive) in the assay on CCRF-CEM; > 100 µM (inactive) with COLO 205; > 100 µM (inactive) in the assay with EKVX; > 100 µM (inactive) with HCC 2998; > 100 µM in the assay on HCT-15. In addition, the GI50 in the assay on HL-60, with HOP-62, in the assay on HT-29, in the assay on KM12, with MOLT-4 and in the assay with NCI-H23 was > 100 µM (inactive) each time. Also, the GI50 in the assay with NCI-H460, in the assay with OVCAR-4, with OVCAR-5, with SF-268, with SF-295 and in the assay with U-251 was > 100 µM (inactive) each time.

As for `O=C1CNc2cc(N3CCCCC3)ccc2N1`, the GI50 in the assay on ACHN was > 100 µM (inactive); in the assay on CCRF-CEM, 99.5 µM (inactive); with EKVX, 21.2 µM (inactive); in the assay with HCC 2998, > 100 µM (inactive); in the assay with HCT-15, > 100 µM; in the assay on HL-60, > 100 µM (inactive). Also, the GI50 was > 100 µM (inactive) in the assay on HOP-62; 8.32 µM (inactive) in the assay on HT-29; 49.4 µM (inactive) in the assay on KM12; > 100 µM (inactive) in the assay with MOLT-4; > 100 µM (inactive) in the assay with NCI-H23; > 100 µM (inactive) in the assay on NCI-H460. Further, the GI50 in the assay with OVCAR-4, with OVCAR-5, in the assay on SF-295 and with U-251 was > 100 µM (inactive) throughout.

In the case of `COc1cc(O)cc(/C=C/c2ccc(O)cc2)c1`, the GI50 was 33.1 µM (inactive) in the assay with A498; 6.31 µM (inactive) with ACHN; 33.7 µM (inactive) in the assay with CAKI-1; > 100 µM (inactive) in the assay with COLO 205; 28.4 µM (inactive) with EKVX; 10.1 µM with HCT-15. Besides, the GI50 with HL-60 was 27.2 µM (inactive); with HOP-62, 28.8 µM (inactive); in the assay on HT-29 it was 40.4 µM (inactive); in the assay on KM12, 25.4 µM (inactive); in the assay on MOLT-4, 36 µM (inactive); with NCI-H23, 26.7 µM (inactive). Besides, the GI50 in the assay on NCI-H460 was 44.7 µM (inactive); with OVCAR-4, 44.6 µM (inactive); in the assay with OVCAR-5 it was > 100 µM (inactive); in the assay on SF-268 it was 49.1 µM (inactive); with SF-295, 25.7 µM (inactive); with U-251, 22.4 µM (inactive).
